According to ChEMBL document CHEMBL1131535, “Conformation-function relationship of vitamin D: conformational analysis predicts potential side-chain structure” (1998):

What follows are compounds tested on U-937 (assay: Relative differentiating activity of U 937 cells when the reference value of […] is defined as 1.).
Assay type: functional, Homo sapiens

Row | SMILES | Relative differentiating activity
1 | C=C1/C(=C\C=C2/CCCC3(C)C2CCC3[C@@H](C)CCCCC(O)(CC)CC)C[C@@H](O)C[C@@H]1O (stereo not given in full) | 200
2 | C=C1/C(=C\C=C2/CCCC3(C)C2CCC3[C@@H](C)/C=C/CCC(O)(CC)CC)C[C@@H](O)C[C@@H]1O (stereo not given in full) | 1000
3 | C=C1/C(=C\C=C2/CCCC3(C)C2CCC3[C@@H](C)OCCCC(C)(C)O)C[C@@H](O)C[C@@H]1O (stereo not given in full) | 1176
4 | C=C1/C(=C\C=C2/CCC[C@]3(C)[C@@H](C(C)OCCCC(O)(CC)CC)CC[C@@H]23)C[C@@H](O)C[C@@H]1O (single isomer, unassigned) [LEXACALCITOL] | 20
5 | C=C1/C(=C\C=C2/CCCC3(C)C2CCC3[C@@H](C)CCCCC(C)(C)O)C[C@@H](O)C[C@@H]1O (stereo not given in full) | 200
6 | C=C1/C(=C\C=C2/CCC[C@]3(C)[C@@H]([C@@H](C)OCCCC(O)(CC)CC)CC[C@@H]23)C[C@@H](O)C[C@@H]1O [LEXACALCITOL] | 20000
7 | C=C1/C(=C\C=C2/CCCC3(C)C2CCC3[C@H](C)CCCCC(O)(CC)CC)C[C@@H](O)C[C@@H]1O (stereo not given in full) | 5
8 | C=C1/C(=C\C=C2/CCC[C@]3(C)[C@@H]([C@H](C)/C=C/C=C/C(O)(CC)CC)CC[C@@H]23)C[C@@H](O)C[C@@H]1O [SEOCALCITOL] | 67

Each compound was assayed on HL-60 (assay: Relative differentiating activity of HL-60 cells when the reference value of […] is defined as 1.).
Assay type: functional, Homo sapiens

Row | SMILES | Relative differentiating activity
9 | C=C1/C(=C\C=C2/CCCC3(C)C2CCC3[C@H](C)/C=C/CCC(C)(C)O)C[C@@H](O)C[C@@H]1O (stereo not given in full) | 10
10 | C=C1/C(=C\C=C2/CCCC3(C)C([C@H](C)CC#CC(O)(C(F)(F)F)C(F)(F)F)=CCC23)C[C@@H](O)C[C@@H]1O (stereo not given in full) | 80
11 | C=C1/C(=C\C=C2/CCCC3(C)C2CCC3[C@H](C)/C=C/CC(O)(C(F)(F)F)C(F)(F)F)C[C@@H](O)C[C@@H]1O (stereo not given in full) | 30
12 | C=C1/C(=C\C=C2/CCCC3(C)C2CCC3[C@H](C)CCCC(F)(F)C(C)(C)O)C[C@@H](O)C[C@@H]1O (stereo not given in full) | 10
13 | C=C1/C(=C\C=C2/CCCC3(C)C([C@H](C)CC#CC(C)(C)O)=CCC23)C[C@@H](O)C[C@@H]1O (stereo not given in full) | 10
14 | C=C1/C(=C\C=C2/CCCC3(C)C2CCC3[C@H](C)/C=C/CC(O)(CC)CC)C[C@@H](O)C[C@@H]1O (stereo not given in full) | 60
15 | C=C1/C(=C\C=C2/CCCC3(C)C2CCC3[C@H](C)/C=C/CCCC(C)(C)O)C[C@@H](O)C[C@@H]1O (stereo not given in full) | 10
